Test system: Escherichia coli cell genome
Experiment: Targeted insertion of lacZ::kan by homologous recombination from N-AcO-AAF-treated pCUL-lacZ::kan plasmid (white/total colonies)
Type: cell-based
Settings: for Recombination frequency: white colonies/total colonies / Total number of colonies/number of recombined colonies: E. coli
Protocol: Reaction mixture • Plasmid DNA: Final concentration of 0.5 μg/μl in 2×10^−3 M citrate buffer, pH 7 • N-AcO-AAF: Final concentration of 400 μg/ml in ethanol.
60 μg DNA are added in 114 μl of 2×10^−3 M citrate buffer, pH7, added with 3 μl of ethanol at 100%.
The solution is preheated at 37° C.; then 3 μl of N-AcO-AAF (400 μg/ml) are added, marked with tritium (^3H).
Reaction time: 4, 8, 20 minutes.
40 μl are taken at the various selected times. The reaction is stopped by a DNA precipitation step with 3 volumes of ethanol/sodium acetate 0.16M followed by three other precipitation steps under the same conditions.
The percentage of modified bases is determined measuring the number of plasmid mols through UV spectrophotometry and the number of bound AAF mols, through βradioactivity counting.
The result is expressed in percentage of modified bases. The reaction time is adapted as a function of the size of the plasmid and the desired percentage of modified bases.
E. coli cells are transformed following the conventional electroporation method by using the conditions recommended by the device manufacturers to this end (Gene Pulser from Biorad for example).
In the example, transformant clones are selected on a LB-agar medium containing kanamycin (20 μg/ml) and the lack of β-galactosidase activity (being expressed by white colonies instead of blue ones), i.e. a phenotype typical of a non reciprocal recombination event is visualized by means of the presence of X-gal (5-bromo-4-chloro-3-indolyl-β-D-galactopyranoside) and IPTG (isopropyl-β-D-thiogalactopyranoside) in the dishes.

Compound: CC(=O)ON(C(C)=O)c1ccc2c(c1)Cc1ccccc1-2 [N-AcO-AAF, N-acetoxy-2-acetylaminofluorene]
- Recombination frequency: white colonies/total colonies (10 AAF injuries per plasmid): 0.056
- Total number of colonies/number of recombined colonies (10 AAF injuries per plasmid): 17819/10
- Recombination frequency: white colonies/total colonies (20 AAF injuries per plasmid): 0.17
- Total number of colonies/number of recombined colonies (20 AAF injuries per plasmid): 9692/17
- Recombination frequency: white colonies/total colonies (33 AAF injuries per plasmid): 0.32
- Total number of colonies/number of recombined colonies (33 AAF injuries per plasmid): 2301975
- Recombination frequency: white colonies/total colonies (43 AAF injuries per plasmid): 1.41
- Total number of colonies/number of recombined colonies (43 AAF injuries per plasmid): 16554/237
- targeted recombinant molecules (67 AAF injuries on the plasmid, wild strain for recombination systems): more than 6%
- Recombination frequency: white colonies/total colonies (67 AAF injuries per plasmid): 6.07
- Total number of colonies/number of recombined colonies (67 AAF injuries per plasmid): 1934/125
- increase in the recombination frequency (67 AAF injuries versus spontaneous events): more than 1,700 fold
- frequency of homologous recombination events (67 molecules of N-AcO-AAF per molecule of the DNA vector): more than 600×10^−4
- frequency of non reciprocal homologous recombination events from the DNA vector to the chromosome (N-AcO-AAF bound onto the polynucleotide): higher than 0.05 homologous recombination events per transfected cell
- frequency of homologous recombination events (ten molecules of N-AcO-AAF per molecule of the DNA vector): 5.61×10^−4
